Reference: ChEMBL document CHEMBL6134887, “Linker and Head-Group Exploration of Anti-MRSA Triaromatic Pleuromutilins” (J Med Chem, 2025)
In brackets after ≈: the same amount, converted by molar mass. Activity calls are given as the source filed them. No cut-off for these calls is given here.

Assays:
Staphylococcus aureus [1] = experiment: Antibacterial activity against methicillin susceptible Staphylococcus aureus ATCC 29213 assessed as inhibition of bacterial growth incubated for 20 to 24 hrs by microbroth serial dilution method; type: functional; conditions: time 20-24 hrs, read-out: MIC100
[2] = Metabolic stability in mouse liver assessed as intrinsic clearance at 1 uM measured up to 60 mins by LC-MS/MS analysis; type: ADME, tissue-based; conditions: read-out: CLH
Staphylococcus aureus [3] = experiment: Antibacterial activity against methicillin susceptible Staphylococcus aureus ATCC 25923 assessed as inhibition of bacterial growth incubated for 20 to 24 hrs by microbroth serial dilution method; type: functional; conditions: time 20-24 hrs, read-out: MIC100
[4] = Metabolic stability in mouse liver microsomes assessed as half-life at 1 uM measured up to 60 mins by LC-MS/MS analysis; type: ADME, Microsome
Enterococcus faecium [5] = experiment: Antibacterial activity against vancomycin, ampicillin and ciprofloxacin resistant Enterococcus faecium clinical isolate 5 assessed as inhibition of bacterial growth incubated for 20 to 24 hrs by microbroth serial dilution method; type: functional; conditions: time 20-24 hrs, read-out: MIC100
Staphylococcus aureus [6] = experiment: Antibacterial activity against methicillin resistant Staphylococcus aureus clinical isolate 52518 assessed as inhibition of bacterial growth incubated for 20 to 24 hrs by microbroth serial dilution method; type: functional; conditions: time 20-24 hrs, read-out: MIC100
Enterococcus faecium [7] = experiment: Antibacterial activity against vancomycin, ampicillin and ciprofloxacin resistant Enterococcus faecium clinical isolate 1 assessed as inhibition of bacterial growth incubated for 20 to 24 hrs by microbroth serial dilution method; type: functional; conditions: time 20-24 hrs, read-out: MIC100
[8] = Metabolic stability in human liver assessed as intrinsic clearance at 1 uM measured up to 30 mins by LC-MS/MS analysis; type: ADME, tissue-based; conditions: read-out: CLH
Streptococcus pneumoniae = experiment: Antibacterial activity against Streptococcus pneumoniae assessed as inhibition of bacterial growth incubated for 20 to 24 hrs by microbroth serial dilution method; type: functional; conditions: time 20-24 hrs, read-out: MIC100
[9] = Metabolic stability in human liver microsomes assessed as half-life at 1 uM measured up to 30 mins by LC-MS/MS analysis; type: ADME, Microsome
Staphylococcus aureus [10] = experiment: Antibacterial activity against methicillin resistant Staphylococcus aureus clinical isolate 55508 assessed as inhibition of bacterial growth incubated for 20 to 24 hrs by microbroth serial dilution method; type: functional; conditions: time 20-24 hrs, read-out: MIC100
Staphylococcus aureus [11] = experiment: Antibacterial activity against methicillin resistant Staphylococcus aureus USA300 FPR3757 assessed as inhibition of bacterial growth incubated for 20 to 24 hrs by microbroth serial dilution method; type: functional; conditions: time 20-24 hrs, read-out: MIC100
Staphylococcus aureus [12] = experiment: Antibacterial activity against mupirocin resistant Staphylococcus aureus 4828 assessed as inhibition of bacterial growth incubated for 20 to 24 hrs by microbroth serial dilution method; type: functional; conditions: time 20-24 hrs, read-out: MIC100
Staphylococcus aureus [13] = experiment: Antibacterial activity against methicillin resistant Staphylococcus aureus clinical isolate 933010 assessed as inhibition of bacterial growth incubated for 20 to 24 hrs by microbroth serial dilution method; type: functional; conditions: time 20-24 hrs, read-out: MIC100
Enterococcus faecalis = experiment: Antibacterial activity against Enterococcus faecalis assessed as inhibition of bacterial growth incubated for 20 to 24 hrs by microbroth serial dilution method; type: functional; conditions: time 20-24 hrs, read-out: MIC100
Staphylococcus aureus [14] = experiment: Antibacterial activity against Staphylococcus aureus ATCC 29213 infected in skin infection female BALB/cJRj mouse model assessed as reduction in bacterial load in wound at 2 % administered twice daily at 6 hrs interval as cream formulation and measured on day 4 (reference value: 5.3 x 10^3 CFU/ml); type: functional; conditions: route top, time 4 day
Staphylococcus aureus [15] = experiment: Antibacterial activity against Staphylococcus aureus ATCC 29213 infected in skin infection female BALB/cJRj mouse model assessed as reduction in bacterial load in wound at 2 % administered twice daily at 6 hrs interval as cream formulation and measured on day 1; type: functional; conditions: route top, time 1 day
Staphylococcus aureus [16] = experiment: Antibacterial activity against Staphylococcus aureus ATCC 29213 infected in skin infection female BALB/cJRj mouse model assessed as reduction in bacterial load in wound at 2 % administered twice daily at 6 hrs interval as cream formulation and measured on day 5; type: functional; conditions: route top, time 5.0 day
Caco-2 = experiment: Cytotoxicity against human Caco-2 cells assessed as reduction in cell viability at 1 to 10 uM measured after 1 to 8 days by Celltiter-Glo reagent based assay; type: toxicity; conditions: caco-2, 10 µM, dose lower 1 µM, time lower 1 day, dose upper 10 µM, time upper 8 day
MDCK-MDR1 = experiment: Cytotoxicity against MDCKII-MDR1 cells assessed as reduction in cell viability at 1 to 10 uM measured after 3 hrs by Celltiter-Glo reagent based assay; type: toxicity, Canis lupus familiaris; conditions: dog, mdck-mdr1, 3 h, dose 1-10 µM
DU-145 = experiment: Cytotoxicity against human DU-145 cells assessed as reduction in cell viability at 1 to 10 uM measured after 3 hrs by Celltiter-Glo reagent based assay; type: toxicity; conditions: du-145, 3 h, dose 1-10 µM

Row | Structure (SMILES) | MIC (Staphylococcus aureus [1]) | CLint scaled at 1 µM [2] | MIC (Staphylococcus aureus [3]) | half-life at 1 µM [4] | MIC (Enterococcus faecium [5]) | MIC (Staphylococcus aureus [6]) | MIC (Enterococcus faecium [7]) | CLint scaled at 1 µM [8] | MIC (Streptococcus pneumoniae) | half-life at 1 µM [9] | MIC (Staphylococcus aureus [10]) | MIC (Staphylococcus aureus [11]) | MIC (Staphylococcus aureus [12]) | MIC (Staphylococcus aureus [13]) | MIC (Enterococcus faecalis) | also measured
1 | C=C[C@]1(C)C[C@@H](OC(=O)CS[C@@H]2C[C@H]3CC[C@@H](C2)N3C)[C@]2(C)[C@H](C)CC[C@]3(CCC(=O)[C@H]32)[C@@H](C)[C@@H]1O [RETAPAMULIN] | 0.12 mg/L (≈ 0.232 µM) | 123 L/h/kg | 0.06 mg/L (≈ 0.116 µM) | 1.3 min | 0.03 mg/L (≈ 0.0579 µM) | 0.12 mg/L (≈ 0.232 µM) | 0.03 mg/L (≈ 0.0579 µM) | 159 L/h/kg | 0.06 mg/L (≈ 0.116 µM) | 2.4 min | 0.25 mg/L (≈ 0.483 µM) | 0.25 mg/L (≈ 0.483 µM) | 0.25 mg/L (≈ 0.483 µM) | 0.5 mg/L (≈ 0.966 µM) | 0.12 mg/L (≈ 0.232 µM) | –
2 | CC(=O)O[C@H]1C[C@@]2(C)[C@@H](C[C@@H](O)[C@H]3[C@@]4(C)CC[C@@H](O)[C@@H](C)[C@@H]4CC[C@@]32C)/C1=C(\CCC=C(C)C)C(=O)O [FUSIDIC ACID] | 0.015 mg/L (≈ 0.029 µM) | – | 0.12 mg/L (≈ 0.232 µM) | – | – | – | – | – | – | – | – | 0.25 mg/L (≈ 0.484 µM) | – | – | – | Activity (Staphylococcus aureus [14]): 2.5 log10CFU/ml; Activity (Staphylococcus aureus [15]): 4.8 10^4CFU/ml; Activity (Staphylococcus aureus [16]): Active
3 | C=C[C@]1(C)C[C@@H](OC(=O)Cn2cc(-c3ccc(Cn4cnc5c(N)ncnc54)cc3)nn2)[C@]2(C)[C@H](C)CC[C@]3(CCC(=O)[C@H]32)[C@@H](C)[C@@H]1O | 0.03 mg/L (≈ 0.046 µM) | > 600 L/h/kg | 0.06 mg/L (≈ 0.0919 µM) | < 0.5 min | – | 0.03 mg/L (≈ 0.046 µM) | – | – | – | – | 0.06 mg/L (≈ 0.0919 µM) | – | 0.06 mg/L (≈ 0.0919 µM) | 0.25 mg/L (≈ 0.383 µM) | – | –
4 | C=C[C@]1(C)C[C@@H](OC(=O)CS[C@@H]2CC[C@@H](N)C[C@H]2O)[C@]2(C)[C@H](C)CC[C@]3(CCC(=O)[C@H]32)[C@@H](C)[C@@H]1O [LEFAMULIN] | 0.25 mg/L (≈ 0.492 µM) | 28.7 L/h/kg | 0.12 mg/L (≈ 0.236 µM) | 11.5 min | – | – | – | – | – | – | – | – | – | – | – | –
5 | C=C[C@]1(C)C[C@@H](OC(=O)Cn2cc(-c3cncc(C(=O)Nc4ccc(N)nc4)c3)nn2)[C@]2(C)[C@H](C)CC[C@]3(CCC(=O)[C@H]32)[C@@H](C)[C@@H]1O | – | 546 L/h/kg | – | 0.6 min | 1 mg/L (≈ 1.56 µM) | – | 1 mg/L (≈ 1.56 µM) | – | 1 mg/L (≈ 1.56 µM) | – | – | 0.25 mg/L (≈ 0.39 µM) | – | – | 1 mg/L (≈ 1.56 µM) | –
6 | C=C[C@]1(C)C[C@@H](OC(=O)CSC(C)(C)CNC(=O)[C@H](N)C(C)C)[C@]2(C)[C@H](C)CC[C@]3(CCC(=O)[C@H]32)[C@@H](C)[C@@H]1O [VALNEMULIN] | 0.03 mg/L (≈ 0.0531 µM) | 212 L/h/kg | 0.12 mg/L (≈ 0.212 µM) | 0.78 min | 0.015 mg/L (≈ 0.0266 µM) | 0.06 mg/L (≈ 0.106 µM) | 0.015 mg/L (≈ 0.0266 µM) | < 5.16 L/h/kg | 0.06 mg/L (≈ 0.106 µM) | > 77.9 min | 0.12 mg/L (≈ 0.212 µM) | 0.06 mg/L (≈ 0.106 µM) | 0.06 mg/L (≈ 0.106 µM) | 0.25 mg/L (≈ 0.443 µM) | 0.03 mg/L (≈ 0.0531 µM) | –
7 | C=C[C@]1(C)C[C@@H](OC(=O)Cn2cc(-c3cncc(NC(=O)c4cnc(OC)cn4)c3)nn2)[C@]2(C)[C@H](C)CC[C@]3(CCC(=O)[C@H]32)[C@@H](C)[C@@H]1O | 0.06 mg/L (≈ 0.0912 µM) | > 600 L/h/kg | 0.12 mg/L (≈ 0.182 µM) | 0.53 min | 0.06 mg/L (≈ 0.0912 µM) | 0.06 mg/L (≈ 0.0912 µM) | 0.06 mg/L (≈ 0.0912 µM) | 65.4 L/h/kg | 1 mg/L (≈ 1.52 µM) | 5.7 min | 0.12 mg/L (≈ 0.182 µM) | 0.06 mg/L (≈ 0.0912 µM) | 0.12 mg/L (≈ 0.182 µM) | 0.12 mg/L (≈ 0.182 µM) | 0.12 mg/L (≈ 0.182 µM) | Activity (Caco-2): Non-toxic; Activity (MDCK-MDR1): Non-toxic; Activity (DU-145): Non-toxic
